Data reported in patent US12037386B2, “Antibodies to PfGARP kill Plasmodium falciparum malaria parasites and protect against infection and severe disease” (priority 2020, dated 2024).
Where two headings read alike, the source gives them in different places.

What was measured:
[1] = system: food vacuole of parasites; settings: cited from earlier work
Ring stage 3D7 parasites = assay: Food vacuole integrity, Fluo-4-AM confocal microscopy; assay type: cell-based, Plasmodium falciparum; settings: 1 μM, positive control, 24 hours
Experimental: FIG. 17 are images showing that anti-PfGARP disrupts food vacuole integrity. Ring stage 3D7 parasites were treated with pre-immune sera (1:10), 1 μM chloroquine, or anti-PfGARP antisera (1:10) for 24 hours, followed by staining with DAPI and Fluo-4-AM. […] Data are representative of 2 independent experiments.
The impact of anti-PfGARP antibodies on food vacuole integrity by confocal microscopy was evaluated using the calcium binding dye Fluo-4-AM, which preferentially labels the food vacuole and has been used to distinguish the food vacuole from the endoplasmic reticulum (Zhang, M. et al. Science 360 (2018)).
The impact of anti-PfGARP antibodies on food vacuole integrity was further evaluated by confocal microscopy using the calcium binding dye Fluo-4-AM, which specifically labels the food vacuole. Ring stage 3D7 parasites were incubated with culture media (negative control), 1 μM chloroquine (positive control), or anti-PfGARP prepared by rPfGARP-A immunization for 24 hours. Parasites were washed with 1×PBS three times and incubated with Fluo-4-AM (a cell-permeable calcium-sensing dye that fluoresces green when bound with Ca^+2) at a final concentration of 2 μM and DAPI for 30 minutes, at 37° C. The parasites were washed with 1×PBS and observed under a fluorescent microscope.

In the case of `CCN(CC)CCCC(C)Nc1ccnc2cc(Cl)ccc12` (stereo not drawn) [chloroquine], the “effect on food vacuole” value ([1]; high concentrations (3 μM)) is given as “disrupts the food vacuole membrane”, the “effect on food vacuole” value ([1]; lower concentrations (68 nM)) is given as “marked food vacuole swelling, but no extravasation of hemozoin into the cytoplasm” and the “food vacuole integrity (Fluo-4-AM redistribution)” value (Ring stage 3D7 parasites) is given as “disrupts the food vacuole leading to dispersion of the dye into the parasite's cytosol”.
